Measured values from US20240016924A1, “NEW ADJUVANT TO IMPROVE THE INNATE IMMUNITY” (INSTITUT NATIONAL DE LA SANTÉ ET DE LA RECHERCHE MÉDICALE, priority 2020, published 2024).

Legend:
nasal RPMI cells = assay: Calcium measurement (Fura-2/AM), nasal RPMI cells; assay type: cell-based, human; conditions: P1 125 μM vs 2511M, controls at 125 μM, n=3
Description: (§1) 70-80% confluent RPMI 2650 or HNEC cells in 24-well plate were loaded with […] Fura-2/AM (Molecular Probes) in basal medium without serum/growth factors for 1 hour at 37° C. Cells were washed twice with mammalian saline (Conche, Boulla et al. 2009) and measurements were performed in complete medium supplied with HEPS (10 mM) and CaCl2 (2 mM) as described add (Conche, Boulla et al. 2009). Images were acquired with an inverted fluorescence microscope (Observer Z1, Zeiss, Germany) and analyzed with MetaMorph software (Guichard, Bonilla et al. 2017) Calcium was measured every 5 seconds by video fluorescence imaging. Results were expressed as 340 nm to 380 nm fluorescence ratio and normalized to the baseline, i.e. ratio at time zero was set as 1.

primary HNEC cells = assay: Calcium measurement (Fura-2/AM), primary HNEC cells; assay type: cell-based, human; conditions: P1 125 μM vs 2511M, controls at 125 μM, n=3
Description: as §1

## SQNQQEKNEQELLELDKWASLWNWFNITNWLWYIK [P1]
Nasal RPMI cells
  extracellular calcium influx (340/380 nm ratio): induces an immediate extracellular calcium influx in a concentration-dependent manner
Primary HNEC cells
  extracellular calcium influx (340/380 nm ratio): induces an immediate extracellular calcium influx in a concentration-dependent manner
